Assays:
Assay type in all cases: functional
Plutella xylostella [1] = assay: Insecticidal activity against Plutella xylostella (diamondback moth) fed on artificial diet containing compound assessed as mortality at 62.5 ug/ml after 96 hr
Helicoverpa armigera [2] = assay: Insecticidal activity against Helicoverpa armigera fed on artificial diet containing compound assessed as mortality at 125 ug/ml after 96 hr
Plutella xylostella [3] = assay: Insecticidal activity against Plutella xylostella (diamondback moth) fed on artificial diet containing compound assessed as mortality at 1000 ug/ml after 96 hr
Helicoverpa armigera [4] = assay: Insecticidal activity against Helicoverpa armigera fed on artificial diet containing compound assessed as mortality at 500 ug/ml after 96 hr
Plutella xylostella [5] = assay: Insecticidal activity against Plutella xylostella (diamondback moth) fed on artificial diet containing compound assessed as mortality at 250 ug/ml after 96 hr
Helicoverpa armigera [6] = assay: Insecticidal activity against Helicoverpa armigera fed on artificial diet containing compound assessed as mortality at 1000 ug/ml after 96 hr
Plutella xylostella [7] = assay: Insecticidal activity against Plutella xylostella (diamondback moth) fed on artificial diet containing compound assessed as mortality at 125 ug/ml after 96 hr
Plutella xylostella [8] = assay: Insecticidal activity against Plutella xylostella (diamondback moth) fed on artificial diet containing compound assessed as mortality at 31.25 ug/ml after 96 hr
Helicoverpa armigera [9] = assay: Insecticidal activity against Helicoverpa armigera fed on artificial diet containing compound assessed as mortality at 31.25 ug/ml after 96 hr
Helicoverpa armigera [10] = assay: Insecticidal activity against Helicoverpa armigera fed on artificial diet containing compound assessed as mortality at 62.5 ug/ml after 96 hr
Helicoverpa armigera [11] = assay: Insecticidal activity against Helicoverpa armigera fed on artificial diet containing compound assessed as mortality at 250 ug/ml after 96 hr
Plutella xylostella [12] = assay: Insecticidal activity against Plutella xylostella (diamondback moth) fed on artificial diet containing compound assessed as mortality at 500 ug/ml after 96 hr

SMILES	mortality at 62.5 µg/mL (Plutella xylostella [1])	mortality at 125 µg/mL (Helicoverpa armigera [2])	mortality at 1000 µg/mL (Plutella xylostella [3])	mortality at 500 µg/mL (Helicoverpa armigera [4])	mortality at 250 µg/mL (Plutella xylostella [5])	mortality at 1000 µg/mL (Helicoverpa armigera [6])	mortality at 125 µg/mL (Plutella xylostella [7])	mortality at 31.25 µg/mL (Plutella xylostella [8])	mortality at 31.25 µg/mL (Helicoverpa armigera [9])	mortality at 62.5 µg/mL (Helicoverpa armigera [10])	mortality at 250 µg/mL (Helicoverpa armigera [11])	mortality at 500 µg/mL (Plutella xylostella [12])
Cc1ccccc1NC(=O)c1ccccc1OCc1ccc(Cl)nc1	0%	0%	0%	0%	0%	0%	0%	0%	0%	0%	0%	0%
Cc1cc(Cl)ccc1NC(=O)c1ccccc1OCc1ccc(Cl)nc1	0%	0%	100%	41%	41%	100%	41%	0%	0%	0%	41%	41%
O=C(Nc1ccc(F)cc1)c1ccccc1OCc1ccc(Cl)nc1	0%	41%	100%	41%	41%	41%	41%	0%	0%	0%	41%	81%
O=C(Nc1ccc(I)cc1)c1ccccc1OCc1ccc(Cl)nc1	0%	0%	100%	0%	100%	0%	41%	0%	0%	0%	0%	100%
O=C(Nc1cc(Cl)c(OC(F)(F)C(F)F)c(Cl)c1)c1ccccc1OCc1ccc(Cl)nc1	41%	0%	100%	41%	100%	100%	100%	41%	0%	0%	41%	100%
CC(C)NC(=O)c1ccccc1OCc1ccc(Cl)nc1	0%	0%	100%	41%	100%	41%	41%	0%	0%	0%	0%	100%
CC(C)N(C(=O)c1ccccc1OCc1ccc(Cl)nc1)C(C)C	0%	41%	100%	100%	100%	100%	41%	0%	0%	0%	41%	100%
CCN(CC)C(=O)c1ccccc1OCc1ccc(Cl)nc1	0%	0%	41%	0%	0%	41%	0%	0%	0%	0%	0%	0%
N#CCN(C(=O)c1ccccc1OCc1ccc(Cl)nc1)c1ccccc1	0%	41%	0%	81%	0%	100%	0%	0%	0%	0%	41%	0%
O=C(c1ccccc1OCc1ccc(Cl)nc1)N1CCCCC1	0%	0%	41%	0%	0%	41%	0%	0%	0%	0%	0%	41%
O=C(c1ccccc1OCc1ccc(Cl)nc1)N1CCOCC1	0%	0%	41%	41%	0%	100%	0%	0%	0%	0%	0%	0%
COc1ccc(NC(=O)c2ccccc2OCc2ccc(Cl)nc2)cc1	81%	0%	100%	0%	100%	0%	100%	41%	0%	0%	0%	100%
O=C(Nc1ccccc1)c1ccccc1OCc1ccc(Cl)nc1	0%	0%	81%	0%	41%	0%	41%	0%	0%	0%	0%	81%
O=C(NC1CCCCC1)c1ccccc1OCc1ccc(Cl)nc1	0%	0%	41%	0%	0%	0%	0%	0%	0%	0%	0%	0%
O=C(Nc1ccc(Br)cc1)c1ccccc1OCc1ccc(Cl)nc1	100%	81%	100%	100%	100%	100%	100%	41%	61%	61%	81%	100%
CC(C)c1ccc(NC(=O)c2ccccc2OCc2ccc(Cl)nc2)cc1	41%	61%	100%	81%	100%	100%	41%	0%	41%	41%	61%	100%
O=C(Nc1ccc(C(F)(F)F)cc1)c1ccccc1OCc1ccc(Cl)nc1	100%	100%	100%	100%	100%	100%	100%	81%	61%	100%	100%	100%
O=C(Nc1cc(C(F)(F)F)cc(C(F)(F)F)c1)c1ccccc1OCc1ccc(Cl)nc1	0%	0%	0%	0%	0%	0%	0%	0%	0%	0%	0%	0%
O=C(Nc1ccccn1)c1ccccc1OCc1ccc(Cl)nc1	0%	0%	100%	0%	41%	0%	0%	0%	0%	0%	0%	41%
